Data on 28 compounds can be found in patent publication US20070032448A1, “Sugar modified nucleosides as viral replication inhibitors” (priority 2002, published 2007).

Series [1] deals with HCV replicon RNA in replicon cells (Huh-7). Kind of series: HCV replicon assay. It is filed as cell-based, Hepatitis C virus. How it is done:
The replicon cells (Huh-7) contain replicating HCV replicon RNA, which was modified in the structural region (replacing the structural region with a neomycin resistance marker). Survival of the replicon cells under G418 selection relies on the replication of HCV RNA and subsequently expression of neomycin phosphoryltransferase. The ability of modified nucleoside libraries and compounds to suppress HCV RNA replication was determined using the Quantigene Assay Kit from Bayer. The assay measures the reduction of HCV RNA molecules in the treated cells. Replicon cells were incubated at 37° C. for 3 days in the presence of nucleoside libraries and compounds before harvested for detection. An HCV subgenomic replicon cell line was provided by Dr. Bartenschlager. The assay protocol was modified based on literature procedure (V. Lohmann, F. Korner, J. O. Koch, U. Herian, L. Theilmann, R. Bartenschlager, Science, 1999, 285, 110-113).

Series [2] can be described thus: Pharmacokinetics, intravenous and oral dosing. It is filed as in vivo.
The test system of another series is mice. Kind of series: Toxicity in mice. To be noted: 160 mg/kg dosing. Format: in vivo.
[3] abbreviates: Hepatitis C virus, 72 h, 2′-beta-methyl cytidine and uridine derivatives, Huh-7 replicon cells, 3 days, read-out: HCV REPLICON EC50.
[4] abbreviates: Hepatitis C virus, Huh-7, 72 h, read-out: HCV Replicon EC50.
[5] abbreviates: 2′-beta-6-substituted adenosine derivatives, Huh-7 replicon cells, 3 days, read-out: HCV Replicon EC50.

Like-named read-outs stand apart in the source and are kept apart here.

For `CNc1nc(=O)n([C@@H]2O[C@H](CO)[C@@H](O)[C@@]2(C)O)cc1C` [Compound P43], the EC50 in series [1] (setting [3]) is above 100 µM.

As for `CC[C@@]1(O)[C@H](O)[C@@H](CO)O[C@H]1n1cnc2c(N)ncnc21` [Compound P6, 2′-C-Ethyladenosine], the EC50 in series [1] (setting [4]) was above 100 µM.

Take `CSc1ncnc2c1ncn2[C@@H]1O[C@H](CO)[C@@H](O)[C@]1(O)C1CC1` [Compound P19, 9-(2-C-Cyclopropyl-β-D-ribofuranosyl)-6-methylmercaptopurine]: the EC50 in series [1] (setting [4]) was above 100 µM.

On to `C=C[C@@]1(O)[C@H](O)[C@@H](CO)O[C@H]1n1cnc2c(N)ncnc21` [Compound P11, 2′-C-Vinyladenosine], for which the EC50 in series [1] (setting [4]) is above 100 µM.

Turning to `CC[C@@]1(O)[C@H](O)[C@@H](CO)O[C@H]1n1cnc2c(SC)ncnc21` [Compound P9, 9-(2-C-Ethyl-β-D-ribofuranosyl)-6-methylmercaptopurine], the EC50 in series [1] (setting [4]) was above 100 µM.

As for `CNc1ncnc2c1ncn2[C@@H]1O[C@H](CO)[C@@H](O)[C@@]1(C)O` [Compound P22, N^6-Methyl-9H-(2′-C-methyl-β-D-ribofuranosyl)adenine], the EC50 in series [1] (setting [5]) is below 10 µM.

For `COc1ncnc2c1ncn2[C@@H]1O[C@H](CO)[C@@H](O)[C@]1(O)C1CC1` [Compound P20, 9-(2-C-cyclopropyl-β-D-ribofuranosyl)-6-methoxypurine], in series [1] (setting [4]), the EC50 was above 100 µM.

With `C[C@@]1(O)[C@H](O)[C@@H](CO)O[C@H]1n1ccc(O)nc1=O` [Compound P39], the EC50 in series [1] (setting [3]) is above 100 µM.

For `CNc1ncnc2c1ncn2[C@@H]1O[C@H](CO)[C@@H](O)[C@]1(O)C1CC1` [Compound P17, N^6-Methyl-2′-C-cyclopropylyladenosine], the EC50 in series [1] (setting [5]) was above 100 µM.

In the case of `CN(C)c1ncnc2c1ncn2[C@@H]1O[C@H](CO)[C@@H](O)[C@]1(O)C1CC1` [Compound P18, N^6-Dimethyl-2′-C-cyclopropylyladenosine], in series [1] (setting [5]), the concentration for a half-maximal effect (EC50) is above 100 µM.

Consider `COc1ncnc2c1ncn2[C@@H]1O[C@H](CO)[C@@H](O)[C@@]1(C)O` [Compound P25], for which the EC50 in series [1] (setting [5]) was below 10 µM.

For `C[C@@]1(O)[C@H](O)[C@@H](CO)O[C@H]1n1cnc2c(N)ncnc21` [Compound P21], the EC50 in series [1] (setting [5]) was below 10 µM.

`CNc1ccn([C@@H]2O[C@H](CO)[C@@H](O)[C@@]2(C)O)c(=O)n1` [Compound P40]: in series [1] (setting [3]), the EC50 is above 100 µM.

Turning to `CC[C@@]1(O)[C@H](O)[C@@H](CO)O[C@H]1n1cnc2c(NC)ncnc21` [Compound P7, N^6-Methyl-2′-C-ethyladenosine], the EC50 in series [1] (setting [4]) was above 100 µM.

As for `C=C[C@@]1(O)[C@H](O)[C@@H](CO)O[C@H]1n1cnc2c(N(C)C)ncnc21` [Compound P13, N^6-Dimethyl-2′-C-vinyladenosine], the concentration giving a half-maximal response (EC50) in series [1] (setting [5]) was above 100 µM.

Take `C[C@@]1(O)[C@H](O)[C@@H](CO)O[C@H]1n1ccc(N)nc1=O` [Compound P37, 2′-β-C-Methylcytidine]: the EC50 in series [1] (setting [3]) is below 10 µM.

On to `Cc1cn([C@@H]2O[C@H](CO)[C@@H](O)[C@@]2(C)O)c(=O)nc1O` [Compound P42], for which the EC50 in series [1] (setting [3]) is above 100 µM.

With `Nc1ncnc2c1ncn2[C@@H]1O[C@H](CO)[C@@H](O)[C@]1(O)C1CC1` [Compound P16, 2′-C-Cyclopropyladenosine], the 50% effective concentration (EC50) in series [1] (setting [4]) is above 100 µM.

As for `CN(C)c1ncnc2c1ncn2[C@@H]1O[C@H](CO)[C@@H](O)[C@@]1(C)O` [Compound P23, N^6-Dimethyl-9H-(2′-C-methyl-β-D-ribofuranosyl)adenine], the EC50 in series [1] (setting [5]) is below 10 µM.

As to `CC[C@@]1(O)[C@H](O)[C@@H](CO)O[C@H]1n1cnc2c(N(C)C)ncnc21` [Compound P8, N^6-Dimethyl-2′-C-ethyladenosine], in series [1] (setting [5]), the EC50 was above 100 µM.

As for `Cc1cn([C@@H]2O[C@H](CO)[C@@H](O)[C@@]2(C)O)c(=O)nc1N(C)C` [Compound P44], the EC50 in series [1] (setting [3]) is above 100 µM.

Take `C=C[C@@]1(O)[C@H](O)[C@@H](CO)O[C@H]1n1cnc2c(NC)ncnc21` [Compound P12, N^6-Methyl-2′-C-vinyladenosine]: the EC50 in series [1] (setting [4]) is above 100 µM.

In the case of `Cc1cn([C@@H]2O[C@H](CO)[C@@H](O)[C@@]2(C)O)c(=O)nc1N` [Compound P38], the EC50 in series [1] (setting [3]) was above 100 µM.

In the case of `CN(C)c1ccn([C@@H]2O[C@H](CO)[C@@H](O)[C@@]2(C)O)c(=O)n1` [Compound P41], the EC50 in series [1] (setting [3]) was above 100 µM.

Turning to `C=C[C@@]1(O)[C@H](O)[C@@H](CO)O[C@H]1n1cnc2c(OC)ncnc21` [Compound P15, 9-(2-C-vinyl-β-D-ribofuranosyl)-6-methoxy-purine], the EC50 in series [1] (setting [4]) is above 100 µM.

Consider `CC[C@@]1(O)[C@H](O)[C@@H](CO)O[C@H]1n1cnc2c(OC)ncnc21` [Compound P10, 9-(2-C-ethyl-β-D-ribofuranosyl)-6-methoxy-purine], for which the EC50 in series [1] (setting [4]) is above 100 µM.

In the case of `C=C[C@@]1(O)[C@H](O)[C@@H](CO)O[C@H]1n1cnc2c(SC)ncnc21` [Compound P14, 9-(2-C-Vinyl-β-D-ribofuranosyl)-6-methylmercaptopurine], in series [1] (setting [4]), the EC50 was above 100 µM.

Take `CSc1ncnc2c1ncn2[C@@H]1O[C@H](CO)[C@@H](O)[C@@]1(C)O` [Compound P24, 6-Thiomethyl-9H-(2′-C-methyl-β-D-ribofuranosyl)adenine]: the EC50 in series [1] (setting [5]) is below 10 µM. Besides, in series [2] (in vivo), the “increase of bioavailability compared to Ribavirin” value was “approximately 4 times”. Further, in series [2] (intravenous dosing), the AUC was 1950.6 ng·h/mL, the C0 was determined as 3452.4 ng/mL and the t1/2b is 25.8 min. In series [2] (oral dosing), the AUC stood at 1953.5 ng·h/mL, the Cmax is 1085.0 ng/mL, the Tmax worked out at 45 min and the t1/2β was determined as 71.4 min. Further, the bioavailability in series [2] (oral vs intravenous dosing) is 100%. In the series with mice, the “body weight, food consumption, and behavior” value is “normal”; the “tissue and organ abnormalities” value was “No tissue and organ abnormalities were observed”; the toxicity entry is reported as “did not show toxicity”.
